From patent US6858645B2, “Tartrate salts of (R) -3-N,N- dicyclobutylamino-8-fluoro-3,4-dihydro-2H-1- benzopyran-5-carboxamide” (AstraZeneca AB, priority 1997, dated 2005)

Experiments:
[1] = Moisture sorption analysis (absorption and desorption), VTI microbalance, as a measure of physical stability; assay type: physicochemical; conditions: 25° C.
Procedure: Determination of Stability […] The moisture sorption analysis, absorption and desorption, respective was performed using a VTI microbalance, Model […] (VTI Corporation, USA) linked to an IBM PC. The relative humidity (RH) within the balance was monitored using a dew point analyser. […] The desorption profile was also obtained.

[2] = thermogravimetric measurement
[3] = water firmly bound in crystal lattice
[4] = background statement on the salt disclosed in WO 95/11891; cited from earlier work

For `NC(=O)c1ccc(F)c2c1C[C@@H](N(C1CCC1)C1CCC1)CO2.O.O=C(O)C(O)C(O)C(=O)O` [Example 2, (R)-3-N,N-dicyclobutylamino-8-fluoro-3,4-dihydro-2H-1-benzopyran-5-carboxamide Hydrogen (2R,3R)-Tartrate Monohydrate], the “RH at which significant uptake of moisture was recorded” value ([1]; RH steps of 5%) was at least 60%, the moisture absorbed ([1]; RH of 90%) was 2.5 % (w/w) and the desorption profile ([1]; desorption after exposure up to 90% RH) was “the moisture uptake is reversible”. For the same molecule, the “initial weight loss (thermogravimetric)” value [2] was 4.104 % w/w and the “heating temperature up to which crystal water is not released” value [3] was “up to 70 °C”.

In the case of `Cl.NC(=O)c1ccc(F)c2c1C[C@@H](N(C1CCC1)C1CCC1)CO2` [HCl salt, (R)-3-N,N-dicyclobutylamino-8-fluoro-3,4-dihydro-2H-1-benzopyran-5-carboxamide, reference compound], the “behaviour at high relative humidity” value ([1]; 85% relative humidity) is given as “exhibits deliquescence”, the moisture taken up ([1]; 85% relative humidity) is given as “approximately 20 % w/w” and the “hygroscopicity / physical stability during manufacturing and storage” value [4] is given as “hygroscopic and thus physically unstable”.
